Where two headings read alike, the source gives them in different places.
Assays:
Experiment in all cases: Post-emergence efficacy, Method A
Type in all cases: in vivo
[1] = system: Ipomoea hederacea (IPOHE); details: read-out: Control of weed species after post-emergence application, IPOHE
[2] = system: Chenopodium album (CHEAL); details: read-out: Control of weed species after post-emergence application, CHEAL
[3] = system: Amaranthus palmeri (AMAPA); details: read-out: Control of weed species after post-emergence application, AMAPA
Lolium perenne (LOLPE) = details: read-out: Control of weed species after post-emergence application, LOLPE
[4] = system: Digitaria sanguinalis (DIGSA); details: read-out: Control of weed species after post-emergence application, DIGSA
Eleusine indica (ELEIN) = details: read-out: Control of weed species after post-emergence application, ELEIN
[5] = system: Echinochloa crus-galli (ECHCG); details: read-out: Control of weed species after post-emergence application, ECHCG
Setaria faberi (SETFA) = details: read-out: Control of weed species after post-emergence application, SETFA
[6] = 500 g/Ha, 100=total damage to plant, 0=no damage, evaluated after 7 and 14 days

| SMILES | pest or weed control at 500 g/ha [1, 6] [%] | pest or weed control at 500 g/ha [2, 6] [%] | pest or weed control at 500 g/ha [3, 6] [%] | pest or weed control at 500 g/ha (Lolium perenne (LOLPE); [6]) [%] | pest or weed control at 500 g/ha [4, 6] [%] | pest or weed control at 500 g/ha (Eleusine indica (ELEIN); [6]) [%] | pest or weed control at 500 g/ha [5, 6] [%] | pest or weed control at 500 g/ha (Setaria faberi (SETFA); [6]) [%] | pest or weed control at 500 g/ha [1] [%] | pest or weed control at 500 g/ha [2] [%] | pest or weed control at 500 g/ha [3] [%] | pest or weed control at 500 g/ha (Lolium perenne (LOLPE)) [%] | pest or weed control at 500 g/ha [4] [%] | pest or weed control at 500 g/ha (Eleusine indica (ELEIN)) [%] | pest or weed control at 500 g/ha [5] [%] | pest or weed control at 500 g/ha (Setaria faberi (SETFA)) [%] |
| --- | --- | --- | --- | --- | --- | --- | --- | --- | --- | --- | --- | --- | --- | --- | --- | --- |
| O=C(O)C[n+]1ccc(-c2nc(C(F)(F)F)ns2)cc1 [Compound A1, 2-[4-[3-(trifluoromethyl)-1,2,4-thiadiazol-5-yl]pyridin-1-ium-1-yl]acetic acid 2,2,2-trifluoroacetate] | 40 | 90 | 100 | 70 | 70 | 90 | 60 | 90 | – | – | – | – | – | – | – | – |
| O=P([O-])(O)C[n+]1ccc(-c2ncns2)cc1 [Compound A32, hydroxy-[[4-(1,2,4-thiadiazol-5-yl)pyridin-1-ium-1-yl]methyl]phosphinate] | 0 | 20 | 60 | 10 | 50 | 40 | 70 | 20 | – | – | – | – | – | – | – | – |
| Cc1noc(-c2cc[n+](CCC(=O)O)cc2)n1 [Compound A50] | 30 | 70 | 40 | 50 | 90 | 40 | 20 | 80 | – | – | – | – | – | – | – | – |
| O=C(O)C[n+]1ccc(-c2nc(C(F)(F)F)co2)cc1 [Compound A44] | 0 | 10 | 30 | 10 | 20 | 10 | 10 | 0 | – | – | – | – | – | – | – | – |
| O=S(=O)([O-])C[n+]1ccc(-c2ncco2)cc1 [Compound A23] | 10 | 20 | 0 | 0 | 20 | 0 | 0 | 0 | – | – | – | – | – | – | – | – |
| O=S(=O)([O-])CC[n+]1ccc(-c2nc(C(F)(F)F)cs2)cc1 [Compound A21] | 10 | 0 | 70 | 20 | 70 | 80 | 90 | 70 | – | – | – | – | – | – | – | – |
| O=S(=O)([O-])CC[n+]1ccc(-c2ncco2)cc1 [Compound A39] | 20 | 30 | 40 | 0 | 0 | 0 | 0 | 0 | – | – | – | – | – | – | – | – |
| O=C(O)C[n+]1ccc(-c2ccno2)cc1 [Compound A40] | 20 | 0 | 10 | 0 | 0 | 0 | 0 | 0 | – | – | – | – | – | – | – | – |
| CCOP(=O)([O-])C[n+]1ccc(-c2ncns2)cc1 [Compound A31] | – | – | – | – | – | – | – | – | 30 | 70 | 70 | 20 | 80 | 80 | 70 | 40 |

Source: patent US20220104493A1, “HERBICIDAL COMPOUNDS” (SYNGENTA CROP PROTECTION AG, priority 2019, published 2022)
